Converted amounts (≈) assume the structure as drawn. “Also recorded” adds a separate entry of the source. Like-named read-outs stand apart in the source and are kept apart here. Numbered stars: 1 amine (or outer) side, 2 acyl side, 3 side chain; on linkers, the order of the positions; unused ones are H or OH. Bridge positions count the residues as written; N and C are the ends. Square brackets hold non-standard residues; d marks the D form. Peptide text beside a SMILES is read from it. * marks the point of attachment. β2hAla(R) = C[C@H](CN[*:1])C(=O)[*:2]; Decanoyl = CCCCCCCCCC(=O)*; Sar = CNCC(=O)O
Experiments:
[1] = TLC precursor-binding assay with C55-P; design: key to C55-P (TLC binding): “+” indicates binding confirmed; “-” indicates no binding; “~” indicates potential binding with absence of precursor band; details: for C55-P spot on TLC after incubation with peptide (in words): absence of C55-P spot = potential indicator of binding, KMnO4 staining in Figure S5; for C55-P (TLC binding): peptide 0.5, 1, 2 equiv. with C55-P in Tris·HCl pH 7.5, 50 mM CaCl2, 1 h, silica TLC
Method: (§1) Lipid II and undecaprenyl phosphate (C55-P) (1 equiv., 30 µL) in Tris•HCl buffer (0.2% Triton X-100, 26 mM MgCl2, and 50 mM CaCl2 at pH 7.5) were incubated with the peptides (0.5, 1, 2 equiv.) or nisin (0.1, 0.5, 1 equiv.) in 30 µL water for 1 h. The reaction was then extracted with ^tBuOH/6 M PyOAc (2/1 v/v, 100 µL) and the organic phase was dried using an Eppendorf vacuum centrifuge 5301 (Fisher Scientific, Loughborough, UK) under reduced pressure. The solid was redissolved in CHCl3/MeOH (1/1 v/v, 30–60 µL) for spotting onto the TLC plates. In addition to the peptide–lipid mixtures, a control of each peptide/nisin with 30 µL buffer, and a control of each lipid with 30 µL HPLC-grade water were also incubated and subjected to the same workup. Silica TLC plates were run in a CHCl3/MeOH/H2O/NH3 (88/48/10/1 v/v) solvent system and stained using iodine vapour, phosphomolybdic acid (PMA), or KMnO4 stain, as well as visualisation at 254 nm and 365 nm.

[2] = TLC precursor-binding assay with lipid II; design: key to Lipid II (TLC binding): “+” indicates binding confirmed; “-” indicates no binding; “~” indicates potential binding with absence of precursor band; details: for Lipid II (TLC binding): peptide 0.5, 1, 2 equiv. (nisin 0.1, 0.5, 1 equiv.) with lipid II in Tris·HCl pH 7.5, 50 mM CaCl2, 1 h, silica TLC
Method: as §1

B. subtilis 168 = format: cell-based
Method: MICs were measured in triplicate by microbroth dilution. An overnight culture of B. subtilis 168 (DSMZ German Collection of Microorganisms and Cell Cultures GmbH) was inoculated at 5 × 10^5 CFU/mL in cation-adjusted Mueller–Hinton broth (MHB II) with or without 15 mM or 100 mM CaCl2. Serial two-fold peptide dilutions (128 - 1 µg/mL for analogues and 16 - 0.25 µg/mL for daptomycin) were incubated in polypropylene U-bottom 96-well plates (200 µL final volume) at 37 °C for 24 h. MIC was the lowest concentration at which no growth was observed. Optical density measurements at 620 nm were performed using a Thermo Scientific Multiskan FC (Thermo Fisher Scientific Inc., Paisley, UK). MIC was determined from the lowest concentration at which no tubidity was observed, using an untreated positive growth control, and a broth-only sterility control as references.

CCCCCCCCCC(=O)N[C@@H](Cc1c[nH]c2ccccc12)C(=O)N[C@H](CC(N)=O)C(=O)N[C@@H](CC(=O)O)C(=O)N[C@@H]1C(=O)NCC(=O)N[C@@H](CCCN)C(=O)N[C@@H](CC(=O)O)C(=O)N[C@H](C)C(=O)N[C@@H](CC(=O)O)C(=O)NCC(=O)N[C@H](CO)C(=O)N[C@@H]([C@H](C)CC(=O)O)C(=O)N[C@@H](CC(=O)c2ccccc2N)C(=O)O[C@@H]1C [Daptomycin, reference compound]
C55-P spot on TLC after incubation with peptide (in words) [1]: a lack of binding
C55-P (TLC binding) [1]: -
Lipid II (TLC binding) [2]: -
MIC − Ca^2+ (B. subtilis 168; B. subtilis 168, MHB II with 0 mM CaCl2, 5 × 10^5 CFU/mL, 37 °C, 24 h, two-fold dilution series, triplicate): 16 µg/mL (≈ 9.87 µM)
decrease in activity in the absence of calcium (B. subtilis 168; B. subtilis 168, MIC without Ca versus with 15 or 100 mM Ca): 16- to 32 fold

CCCCCCCCCC(=O)NC[C@@H](C)C(=O)NCC(=O)N[C@H](CCC(=O)O)C(=O)N[C@@H](Cc1ccc(O)cc1)C(=O)N[C@@H]1C(=O)N[C@H]([C@H](C)CC)C(=O)N[C@@H](CC(=O)O)C(=O)N[C@@H](CC(=O)O)C(=O)N2CCC[C@H]2C(=O)NCC(=O)N[C@H](CCC(=O)O)C(=O)N[C@@H](CCC(=O)O)C(=O)N(C)CC(=O)O[C@@H]1C [Peptide C1a] (Decanoyl-[β2hAla(R)]G[dE]YT[dI]DDPG[dE]E[Sar]; ester 5-C)
C55-P (TLC binding) [1]: -
Lipid II (TLC binding) [2]: -
MIC + Ca^2+ (B. subtilis 168; 168, 24 h): 128 µg/mL
MIC − Ca^2+ (B. subtilis 168; 168, 24 h): 128 µg/mL (≈ 84.4 µM)

CCCCCCCCCC(=O)NC[C@@H](C)C(=O)NCC(=O)N[C@H](CCC(=O)O)C(=O)N[C@@H](Cc1ccc(O)cc1)C(=O)N[C@@H]1C(=O)N[C@H]([C@H](C)CC)C(=O)N[C@@H](CC(=O)O)C(=O)N[C@@H](CC(=O)O)C(=O)N2CCC[C@H]2C(=O)NCC(=O)N[C@H](CCC(=O)O)C(=O)N[C@@H](CCC(=O)O)C(=O)N(C)CC(=O)O[C@@H]1C [Peptide C1b] (Decanoyl-[β2hAla(R)]G[dE]YT[dI]DDPG[dE]E[Sar]; ester 5-C)
C55-P spot on TLC after incubation with peptide (in words) [1]: no longer visible
C55-P (TLC binding) [1]: ~
Lipid II (TLC binding) [2]: -
MIC + Ca^2+ (B. subtilis 168; 168, 24 h): 128 µg/mL

CCCCCCCCCC(=O)NC[C@@H](C)C(=O)NCC(=O)N[C@H](CCC(=O)O)C(=O)N[C@@H](Cc1ccc(O)cc1)C(=O)N[C@@H]1C(=O)N[C@H]([C@H](C)CC)C(=O)N[C@@H](CC(=O)O)C(=O)N[C@@H](CC(=O)O)C(=O)N2CCC[C@H]2C(=O)NCC(=O)N[C@@H](CCC(=O)O)C(=O)N[C@@H](CCC(=O)O)C(=O)N(C)CC(=O)O[C@@H]1C [Peptide C2a] (Decanoyl-[β2hAla(R)]G[dE]YT[dI]DDPGEE[Sar]; ester 5-C)
C55-P spot on TLC after incubation with peptide (in words) [1]: no longer visible
C55-P (TLC binding) [1]: ~
Lipid II (TLC binding) [2]: -
MIC + Ca^2+ (B. subtilis 168; 168, 24 h): 128 µg/mL
MIC − Ca^2+ (B. subtilis 168; 168, 24 h): 128 µg/mL (≈ 84.4 µM)

CCCCCCCCCC(=O)NC[C@@H](C)C(=O)NCC(=O)N[C@H](CCC(=O)O)C(=O)N[C@@H](Cc1ccc(O)cc1)C(=O)N[C@@H]1C(=O)N[C@H]([C@H](C)CC)C(=O)N[C@@H](CC(=O)O)C(=O)N[C@@H](CC(=O)O)C(=O)N2CCC[C@H]2C(=O)NCC(=O)N[C@@H](CCC(=O)O)C(=O)N[C@@H](CCC(=O)O)C(=O)N(C)CC(=O)O[C@@H]1C [Peptide C2b] (Decanoyl-[β2hAla(R)]G[dE]YT[dI]DDPGEE[Sar]; ester 5-C)
C55-P spot on TLC after incubation with peptide (in words) [1]: no longer visible
Lipid II (TLC binding) [2]: -

CCCCCCCCCC(=O)NC[C@@H](C)C(=O)NCC(=O)N[C@H](CCC(=O)O)C(=O)N[C@@H](Cc1ccc(O)cc1)C(=O)N[C@@H]1C(=O)N[C@H]([C@H](C)CC)C(=O)N[C@@H](CC(=O)O)C(=O)N[C@@H](CC(=O)O)C(=O)N2CCC[C@H]2C(=O)NCC(=O)N[C@@H](CCC(=O)O)C(=O)N[C@@H](CCC(=O)O)C(=O)N(C)CC(=O)O[C@@H]1C [Peptide C2c] (Decanoyl-[β2hAla(R)]G[dE]YT[dI]DDPGEE[Sar]; ester 5-C)
C55-P spot on TLC after incubation with peptide (in words) [1]: no longer visible
Lipid II (TLC binding) [2]: -

CCCCCCCCCC(=O)NC[C@@H](C)C(=O)NCC(=O)N[C@H](CCC(=O)O)C(=O)N[C@@H](Cc1ccc(O)cc1)C(=O)N[C@@H]1C(=O)N[C@H]([C@H](C)CC)C(=O)N[C@@H](CC(=O)O)C(=O)N[C@@H](CC(=O)O)C(=O)N2CCC[C@H]2C(=O)NCC(=O)N[C@H](CC(=O)O)C(=O)N[C@@H](CC(=O)O)C(=O)N(C)CC(=O)O[C@@H]1C [Peptide C3] (Decanoyl-[β2hAla(R)]G[dE]YT[dI]DDPG[dD]D[Sar]; ester 5-C)
C55-P spot on TLC after incubation with peptide (in words) [1]: no spots for C55-P; also recorded: no longer visible
C55-P (TLC binding) [1]: ~
Lipid II (TLC binding) [2]: -
MIC + Ca^2+ (B. subtilis 168; 168, 24 h): 128 µg/mL
MIC − Ca^2+ (B. subtilis 168; 168, 24 h): 128 µg/mL (≈ 86 µM)

CCCCCCCCCC(=O)NC[C@@H](C)C(=O)NCC(=O)N[C@H](CCC(=O)O)C(=O)N[C@@H](Cc1ccc(O)cc1)C(=O)N[C@@H]1C(=O)N[C@H]([C@H](C)CC)C(=O)N[C@@H](CC(=O)O)C(=O)N[C@@H](CC(=O)O)C(=O)N2CCC[C@H]2C(=O)NCC(=O)N[C@@H](CC(=O)O)C(=O)N[C@@H](CC(=O)O)C(=O)N(C)CC(=O)O[C@@H]1C [Peptide C4] (Decanoyl-[β2hAla(R)]G[dE]YT[dI]DDPGDD[Sar]; ester 5-C)
C55-P (TLC binding) [1]: -
Lipid II (TLC binding) [2]: -
MIC + Ca^2+ (B. subtilis 168; 168, 24 h): 128 µg/mL
MIC − Ca^2+ (B. subtilis 168; 168, 24 h): 128 µg/mL (≈ 86 µM)

CCCCCCCCCC(=O)NC[C@@H](C)C(=O)NCC(=O)N[C@H](CCC(=O)O)C(=O)N[C@@H](Cc1ccc(O)cc1)C(=O)N[C@@H]1C(=O)N[C@H]([C@H](C)CC)C(=O)N[C@@H](CC(=O)O)C(=O)N[C@@H](CC(=O)O)C(=O)N2CCC[C@H]2C(=O)NCC(=O)N[C@H](CC(=O)O)C(=O)N[C@@H](CCC(=O)O)C(=O)N(C)CC(=O)O[C@@H]1C [Peptide C5] (Decanoyl-[β2hAla(R)]G[dE]YT[dI]DDPG[dD]E[Sar]; ester 5-C)
C55-P (TLC binding) [1]: -
Lipid II (TLC binding) [2]: -
MIC + Ca^2+ (B. subtilis 168; 168, 24 h): 128 µg/mL
MIC − Ca^2+ (B. subtilis 168; 168, 24 h): 128 µg/mL (≈ 85.2 µM)

CCCCCCCCCC(=O)NC[C@@H](C)C(=O)NCC(=O)N[C@H](CCC(=O)O)C(=O)N[C@@H](Cc1ccc(O)cc1)C(=O)N[C@@H]1C(=O)N[C@H]([C@H](C)CC)C(=O)N[C@@H](CC(=O)O)C(=O)N[C@@H](CC(=O)O)C(=O)N2CCC[C@H]2C(=O)NCC(=O)N[C@@H](CC(=O)O)C(=O)N[C@@H](CCC(=O)O)C(=O)N(C)CC(=O)O[C@@H]1C [Peptide C6] (Decanoyl-[β2hAla(R)]G[dE]YT[dI]DDPGDE[Sar]; ester 5-C)
C55-P spot on TLC after incubation with peptide (in words) [1]: no longer visible
C55-P (TLC binding) [1]: ~
Lipid II (TLC binding) [2]: -
MIC + Ca^2+ (B. subtilis 168; 168, 24 h): 128 µg/mL
MIC − Ca^2+ (B. subtilis 168; 168, 24 h): 128 µg/mL (≈ 85.2 µM)

CCCCCCCCCC(=O)NC[C@@H](C)C(=O)NCC(=O)N[C@H](CCC(=O)O)C(=O)N[C@@H](Cc1ccc(O)cc1)C(=O)N[C@@H]1C(=O)N[C@H]([C@H](C)CC)C(=O)N[C@@H](CC(=O)O)C(=O)N[C@@H](CC(=O)O)C(=O)N2CCC[C@H]2C(=O)NCC(=O)N[C@H](CCC(=O)O)C(=O)N[C@@H](CC(=O)O)C(=O)N(C)CC(=O)O[C@@H]1C [Peptide C7b] (Decanoyl-[β2hAla(R)]G[dE]YT[dI]DDPG[dE]D[Sar]; ester 5-C)
MIC + Ca^2+ (B. subtilis 168; 168, 24 h): 128 µg/mL

Nisin [reference compound]
binding to lipid II in TLC assay (in words) ([2]; lipid II spot on TLC after incubation, PMA staining in Figure S6): nisin-lipid II binding; also recorded: Positive binding
Lipid II (TLC binding) [2]: +
